Literature values, collected in patent US20110311589A1 (priority 2008, published 2011).

System: helminthiasis
Settings: in vivo

## c1ccc([C@H]2CN3CCSC3=N2)cc1 [Levamisole]
  Dosage level at which particularly effective as anthelmintic: approximately 7.5 mg per kg of animal body weight
